# Data: paper PMC5444726, “A CD44-specific peptide, RP-1, exhibits capacities of assisting diagnosis and predicting prognosis of gastric cancer” (Oncotarget, 2017)
# System: CD44 in gastric carcinoma and surrounding tissues
# Assay: Immunohistochemistry of human gastric cancer tissue microarray
# Details: for RP-1 staining negative, number (%) / RP-1 staining positive, number (%): % of all 100 cases
# Procedure: Prepared paraffin-embedded sections were deparaffinized, rehydrated, retrieved and blocked with 5% BSA (w/v) in PBS at ambient temperature for 30 min. Then, sections were incubated with 100 μM biotin labeled RP-1 peptide or human specific rabbit anti-CD44 monoclonal antibody (1:200, ZSGB-BIO, Beijing, China) overnight at 4°C. After PBS washing for three times, sections were subsequently incubated with streptavidin-HRP (1:500, Proteintech, Wuhan, China) and goat anti-rabbit secondary antibody (1:300, BOSTER, Wuhan, China). Diaminobenzidine (DAB, ZSGB-BIO, Beijing, China) was used as a chromogen. Finally, the sections were counterstained with hematoxylin and mounted with neutral balsam.
# Two TMA slides (Shanghai Outdo Biotech Co LTD, Shanghai, China), each containing 100 GC tissues samples (including 66 adenocarcinoma, 19 tubular adenocarcinoma, 8 mucinous adenocarcinoma, 2 undifferentiated carcinoma and 5 signet-ring cell carcinoma tissue samples) and 80 surrounding tissue samples from 100 patients, were used to evaluate the diagnostic and prognostic effects of RP-1. Samples were obtained from treatment-naive patients with written informed consent signed and dated. Age of the 100 patients with GC ranged from 32 to 81 years (mean, 64.4 years). Their clinicopathological characteristics were described in Table 2. The TNM stage of all patients with GC was assessed according to the American Joint Commission for Cancer (AJCC 7th edition) and tumors were histologically classified according to the criteria described by the World Health Organization (2000). The Medical Ethics Committee of Taizhou Hospital of Zhejiang province reviewed and approved all studies.
# We performed immunohistochemical staining of TMA slides with RP-1 and human specific anti-CD44 monoclonal antibody by following the procedure described in the section Immunohistochemistry. The immunoreactivity was assessed with the immunohistochemistry score (HSCORE) system, which evaluated the staining intensity and percentages of positive cells stained at a specific magnitude of intensity. The HSCORE was calculated using the equation HSCORE=∑Pi(i) (i = 0, 1, 2, 3, Pi = 0–100%), in which i was the staining intensity (0, no staining; 1, weak staining; 2, moderate staining; 3, strong staining) and Pi was the percentage of positive cells on a scale of 0% to 100%. Positive cell count was assessed in 5 randomly selected fields of vision with a microscope (400×). All immunohistochemical evaluations were conducted by two independent pathologists […].
# Receiver–operator curve (ROC) analysis was performed to determine the cut-off score for both RP-1 peptide and anti-CD44 monoclonal antibody. The score closest to the point (0.0, 1.0) with maximum sensitivity and specificity was identified as the cut-off score. Samples with a HSCORE of cut-off value or below were considered as negative staining, otherwise they were considered as positive staining.
# Statistical analysis was conducted with SPSS software, version 21.0 (IBM, New York, USA). Kappa values were used to determine the consistency of histological and immunohistochemical results between RP-1 peptide and anti-CD44 antibody. Independent sample t-test was performed to decide existence of statistical difference in fluorescent intensity values between tumor and other normal organs. The ROC analysis was carried out to decide the cut-off value for RP-1 and anti-CD44 antibody. The area under the curve (AUC) was calculated to compare the diagnostic accuracy of RP-1 and anti-CD44 antibody. χ^2-test was used to assess the association between each clinicopathological variable and RP-1 staining intensity, while log-rank test was used for assessing the association between survival and each clinicopathological variable. Multiple Cox proportional hazards regression was performed to verify if RP-1 positivity can be used as an independent risk factor for prognosis of GC. […]
# [1] = adenocarcinoma, 66 cases, P = 0.182
# [2] = age > 64.4, 46 cases, P = 0.036
# [3] = age ≤ 64.4, 54 cases, P = 0.036
# [4] = all antibody results, total 100
# [5] = clinicopathological stage I, 10 cases, P = 0.526
# [6] = clinicopathological stage II, 32 cases, P = 0.526
# [7] = clinicopathological stage III, 50 cases, P = 0.526
# [8] = clinicopathological stage IV, 8 cases, P = 0.526
# [9] = moderately differentiated, 69 cases, P = 0.066
# [10] = mucinous adenocarcinoma, 8 cases, P = 0.182
# [11] = poorly differentiated, 5 cases, P = 0.066
# [12] = signet ring cell carcinoma, 4 cases, P = 0.182
# [13] = tubular adenocarcinoma, 19 cases, P = 0.182
# [14] = undifferentiated carcinoma, 3 cases, P = 0.182
# [15] = well differentiated, 26 cases, P = 0.066
sequence,measurement,setting,value
"WHPWSYLWTQQA [RP-1, CD44-specific peptide … screened from a 12-mer phage peptide library]","RP-1 staining negative, number (%)",[1],16 (16.0)
same,"RP-1 staining positive, number (%)",[1],50 (50.0)
same,"RP-1 staining negative, number (%)",[2],12 (12.0)
same,"RP-1 staining positive, number (%)",[2],34 (34.0)
same,"RP-1 staining negative, number (%)",[3],15 (15.0)
same,"RP-1 staining positive, number (%)",[3],39 (39.0)
same,number of pericarcinomatous tissues RP-1 negative,"all antibody results, total 80",70
same,number of pericarcinomatous tissues RP-1 positive,"all antibody results, total 80",10
same,number of gastric carcinoma tissues RP-1 negative,[4],27
same,number of gastric carcinoma tissues RP-1 positive,[4],73
same,number of gastric carcinoma tissues RP-1 negative,antibody negative,18
same,number of gastric carcinoma tissues RP-1 positive,antibody negative,18
same,number of pericarcinomatous tissues RP-1 negative,antibody negative,56
same,number of pericarcinomatous tissues RP-1 positive,antibody negative,9
same,number of gastric carcinoma tissues RP-1 negative,antibody positive,9
same,number of gastric carcinoma tissues RP-1 positive,antibody positive,55
same,number of pericarcinomatous tissues RP-1 negative,antibody positive,14
same,number of pericarcinomatous tissues RP-1 positive,antibody positive,1
same,"RP-1 staining negative, number (%)",[5],4 (4.0)
same,"RP-1 staining positive, number (%)",[5],6 (6.0)
same,"RP-1 staining negative, number (%)",[6],10 (10.0)
same,"RP-1 staining positive, number (%)",[6],22 (22.0)
same,"RP-1 staining negative, number (%)",[7],12 (12.0)
same,"RP-1 staining positive, number (%)",[7],38 (38.0)
same,"RP-1 staining negative, number (%)",[8],1 (1.0)
same,"RP-1 staining positive, number (%)",[8],7 (7.0)
same,"RP-1 staining negative, number (%)","died, 69 cases, P < 0.001",11 (11.0)
same,"RP-1 staining positive, number (%)","died, 69 cases, P < 0.001",58 (58.0)
same,"RP-1 staining negative, number (%)","female, 36 cases, P = 0.895",10 (10.0)
same,"RP-1 staining positive, number (%)","female, 36 cases, P = 0.895",26 (26.0)
same,"RP-1 staining negative, number (%)","male, 64 cases, P = 0.895",17 (17.0)
same,"RP-1 staining positive, number (%)","male, 64 cases, P = 0.895",47 (47.0)
same,"RP-1 staining negative, number (%)",[9],21 (21.0)
same,"RP-1 staining positive, number (%)",[9],53 (53.0)
same,"RP-1 staining negative, number (%)",[10],5 (5.0)
same,"RP-1 staining positive, number (%)",[10],3 (3.0)
same,"RP-1 staining negative, number (%)","pM0, 91 cases, P = 0.260",26 (26.0)
same,"RP-1 staining positive, number (%)","pM0, 91 cases, P = 0.260",65 (65.0)
same,"RP-1 staining negative, number (%)","pM1, 9 cases, P = 0.260",1 (1.0)
same,"RP-1 staining positive, number (%)","pM1, 9 cases, P = 0.260",8 (8.0)
same,"RP-1 staining negative, number (%)","pN0, 27 cases, P = 0.101",6 (6.0)
same,"RP-1 staining positive, number (%)","pN0, 27 cases, P = 0.101",21 (21.0)
same,"RP-1 staining negative, number (%)","pN1, 15 cases, P = 0.101",8 (8.0)
same,"RP-1 staining positive, number (%)","pN1, 15 cases, P = 0.101",7 (7.0)
same,"RP-1 staining negative, number (%)","pN2, 28 cases, P = 0.101",6 (6.0)
same,"RP-1 staining positive, number (%)","pN2, 28 cases, P = 0.101",22 (22.0)
same,"RP-1 staining negative, number (%)","pN3, 30 cases, P = 0.101",7 (7.0)
same,"RP-1 staining positive, number (%)","pN3, 30 cases, P = 0.101",23 (23.0)
same,"RP-1 staining negative, number (%)","pT1, 8 cases, P = 0.399",3 (3.0)
same,"RP-1 staining positive, number (%)","pT1, 8 cases, P = 0.399",5 (5.0)
same,"RP-1 staining negative, number (%)","pT2, 9 cases, P = 0.399",1 (1.0)
same,"RP-1 staining positive, number (%)","pT2, 9 cases, P = 0.399",6 (6.0)
same,"RP-1 staining negative, number (%)","pT3, 66 cases, P = 0.399",20 (20.0)
same,"RP-1 staining positive, number (%)","pT3, 66 cases, P = 0.399",45 (45.0)
same,"RP-1 staining negative, number (%)","pT4, 17 cases, P = 0.399",3 (3.0)
same,"RP-1 staining positive, number (%)","pT4, 17 cases, P = 0.399",17 (17.0)
same,"RP-1 staining negative, number (%)",[11],0 (0.0)
same,"RP-1 staining positive, number (%)",[11],11 (11.0)
same,"RP-1 staining negative, number (%)",[12],1 (1.0)
same,"RP-1 staining positive, number (%)",[12],4 (4.0)
same,"RP-1 staining negative, number (%)","survived, 31 cases, P < 0.001",16 (16.0)
same,"RP-1 staining positive, number (%)","survived, 31 cases, P < 0.001",15 (15.0)
same,HSCORE of GC samples versus surrounding tissue,"t-test, P < 0.001",significantly higher
same,cell types stained positive,"tissue microarray, gastric carcinoma and surrounding tissue",positive only in tumor cells
same,"RP-1 staining negative, number (%)",[13],5 (5.0)
same,"RP-1 staining positive, number (%)",[13],14 (14.0)
same,"RP-1 staining negative, number (%)",[14],0 (0.0)
same,"RP-1 staining positive, number (%)",[14],2 (2.0)
same,"RP-1 staining negative, number (%)",[15],6 (6.0)
same,"RP-1 staining positive, number (%)",[15],9 (9.0)
